# Literature values, collected in patent US4292313A, “LRF Antagonists” (The Salk Institute for Biological Studies, priority 1980, dated 1981).
# [ ]: non-standard residue; d: D form. pGlu = O=C1CC[C@@H](C(=O)O)N1
# Tested on: pituitary gland
# Settings: versus 6-Gly des-His2 analog
substance,measurement,value
[pGlu]WSY[dA]LRPG-NH2,Potency as inhibitor of release of gonadotropins relative to the same peptide with Gly in the 6-position,3 times
